This is an account of results in PubChem BioAssay AID1224902.

For the experiment, the system named is PC3 prostate cancer viability, PrestoBlue fluorescence. Kind of experiment: antiproliferative effect, PC3 prostate cancer line – cell-based, mTOR inhibitor project, dose response (AID 1224902).

As for `CCOC(Cn1nc(-c2ccc3oc(N)nc3c2)c2c(N)ncnc21)OCC`, the EC50 is 37 nM.

As a reminder, the EC50 is the concentration at which the effect is half-maximal.
